Test results as given in article PMC7717600, “Novel [(N-alkyl-3-indolylmethylene)hydrazono]oxindoles arrest cell cycle and induce cell apoptosis by inhibiting CDK2 and Bcl-2: synthesis, biological evaluation and in silico studies” (Journal of Enzyme Inhibition and Medicinal Chemistry, 2020).

Assays:
KM12 = conditions: KM12, 10 μM
HL-60(TB) = conditions: HL-60(TB), 10 μM
SF-295 = conditions: SF-295, 10 μM
SK-MEL-28 = conditions: SK-MEL-28, 10 μM
HCT-15 = conditions: HCT-15, 10 μM
SF-539 = conditions: SF-539, 10 μM
MDA-MB-231/ATCC = conditions: MDA-MB-231, 10 μM
PC-3 = assay: NCI SRB screening; format: cell-based, human; conditions: PC-3, 10 μM
DU-145 = conditions: DU-145, 10 μM
SW-620 = conditions: SW-620, 10 μM
M14 = assay: NCI SRB screening; format: cell-based; conditions: M14, 10 μM
UO-31 = conditions: UO-31, 10 μM
SN12C = conditions: 10 μM
MDA-MB-435 = assay: NCI SRB screening; format: cell-based; conditions: MDA-MB-435, 10 μM
UACC-257 = conditions: UACC-257, 10 μM
SNB-19 = conditions: SNB-19, 10 μM
NCI-H322M = assay: NCI SRB screening; conditions: 10 μM
K-562 = conditions: K-562, 10 μM
SF-268 = conditions: SF-268, 10 μM
SK-OV-3 = conditions: SK-OV-3, 10 μM
IGROV1 = conditions: IGROV1, 10 μM
NCI-H522 = conditions: NCI-H522, 10 μM
BT-549 = conditions: BT-549, 10 μM
SR = conditions: 10 μM
HT29 = conditions: HT29, 10 μM
786-0 = conditions: 786-0, 10 μM
A498 = conditions: A498, 10 μM
SK-MEL-2 = conditions: SK-MEL-2, 10 μM
OVCAR-4 = conditions: OVCAR-4, 10 μM
COLO 205 = assay: NCI SRB screening; format: cell-based, human; conditions: COLO 205, 10 μM
RPMI-8226 = conditions: RPMI-8226, 10 μM
OVCAR-5 = conditions: OVCAR-5, 10 μM
SK-MEL-5 = conditions: SK-MEL-5, 10 μM
LOX IMVI = assay: NCI SRB screening; format: cell-based, human; conditions: 10 μM
SNB-75 = conditions: SNB-75, 10 μM
MDA-MB-231 = assay: SRB anti-proliferative assay; format: cell-based; conditions: Homo sapiens; MDA-MB-231, SRB, mean ± SE of 3
Method: (§1) All the newly prepared target conjugates (7, 8a–c, 9 and 10a–e) were investigated for the prospective growth inhibitory actions against three different cancer cell lines viz.; A-549, MDA-MB-231, and HCT-116, using the sulforhodamine B colorimetric (SRB) assay. Staurosporine, a clinically used antitumor drug, was co-assayed as a reference agent for the experiment.
(§2) Examination of the cytotoxic activity for the target conjugates was carried out in accordance with the SRB colorimetric assay protocol, as described previously.
(§3) In vitro anti-proliferative activity assay
(§4) Cells at a concentration of 0.50 x
(§5) Sulfo-Rhodamine-B stain (SRB) assay.
(§6) cell to the wall of the plate.
(§7) wells were prepared for each individual dose).
(§8) Unbound dye was removed by four

HCT-116 = assay: SRB anti-proliferative assay; format: cell-based; conditions: Homo sapiens; HCT-116, SRB, mean ± SE of 3
Method: as §1, §2, §3, §4, §5, §6, §7, §8

OVCAR-3 = conditions: OVCAR-3, 10 μM
MALME-3M = conditions: 10 μM
CCRF-CEM = conditions: 10 μM
MDA-MB-468 = conditions: MDA-MB-468, 10 μM
UACC-62 = conditions: UACC-62, 10 μM
T-47D = conditions: 10 μM

For `CCCn1cc(/C=N/N=C2\C(=O)Nc3ccc(OC(F)(F)F)cc32)c2ccccc21` [Compound 8b], the GI % (KM12) was “– (Only GI % higher than 10% are shown)”, the GI % (HL-60(TB)) was 12% and the GI % (SF-295) was “– (Only GI % higher than 10% are shown)”. For the same compound, the GI % (SK-MEL-28) was “– (Only GI % higher than 10% are shown)”, the GI % (HCT-15) was 23% and the GI % (SF-539) was “– (Only GI % higher than 10% are shown)”. For the same compound, the GI % (MDA-MB-231/ATCC) was “– (Only GI % higher than 10% are shown)”, the GI % (PC-3) was 32% and the GI % (DU-145) was 13%. For the same compound, the GI % (SW-620) was “– (Only GI % higher than 10% are shown)”, the GI % (M14) was “– (Only GI % higher than 10% are shown)” and the GI % (UO-31) was 19%. The GI % (SN12C) was “– (Only GI % higher than 10% are shown)”, the GI % (MDA-MB-435) was “– (Only GI % higher than 10% are shown)” and the GI % (UACC-257) was “– (Only GI % higher than 10% are shown)”. The GI % (SNB-19) was “– (Only GI % higher than 10% are shown)”, the GI % (NCI-H322M) was “– (Only GI % higher than 10% are shown)” and the GI % (K-562) was 33%. For the same compound, the GI % (SF-268) was “– (Only GI % higher than 10% are shown)”, the GI % (SK-OV-3) was “– (Only GI % higher than 10% are shown)” and the GI % (IGROV1) was “– (Only GI % higher than 10% are shown)”. For the same compound, the GI % (NCI-H522) was 19%, the GI % (BT-549) was “– (Only GI % higher than 10% are shown)” and the GI % (SR) was “– (Only GI % higher than 10% are shown)”. The GI % (HT29) was 25%, the GI % (786-0) was “– (Only GI % higher than 10% are shown)” and the GI % (A498) was “– (Only GI % higher than 10% are shown)”. The GI % (SK-MEL-2) was “– (Only GI % higher than 10% are shown)”, the GI % (OVCAR-4) was “– (Only GI % higher than 10% are shown)” and the GI % (COLO 205) was “– (Only GI % higher than 10% are shown)”. For the same compound, the GI % (RPMI-8226) was 30%, the GI % (OVCAR-5) was “– (Only GI % higher than 10% are shown)” and the GI % (SK-MEL-5) was “– (Only GI % higher than 10% are shown)”. For the same compound, the GI % (LOX IMVI) was “– (Only GI % higher than 10% are shown)”, the GI % (SNB-75) was “– (Only GI % higher than 10% are shown)” and the IC50 (MDA-MB-231) was 8.9 ± 0.61 µM. The IC50 (HCT-116) was 19.1 ± 1.34 µM, the GI % (OVCAR-3) was “– (Only GI % higher than 10% are shown)” and the GI % (MALME-3M) was “– (Only GI % higher than 10% are shown)”. It also gave a GI % (CCRF-CEM) of 52%, a GI % (MDA-MB-468) of 11% and a GI % (UACC-62) of 11%. It also gave a GI % (T-47D) of 35%.

For `CCCn1cc(C=NN=C2C(=O)Nc3ccc([N+](=O)[O-])cc32)c2ccccc21` [Compound 8c], the GI % (KM12) was 11%, the GI % (HL-60(TB)) was 10% and the GI % (SF-295) was “– (Only GI % higher than 10% are shown)”. For the same compound, the GI % (SK-MEL-28) was “– (Only GI % higher than 10% are shown)”, the GI % (HCT-15) was “– (Only GI % higher than 10% are shown)” and the GI % (SF-539) was 10%. The GI % (MDA-MB-231/ATCC) was “– (Only GI % higher than 10% are shown)”, the GI % (PC-3) was “– (Only GI % higher than 10% are shown)” and the GI % (DU-145) was “– (Only GI % higher than 10% are shown)”. For the same compound, the GI % (SW-620) was “– (Only GI % higher than 10% are shown)”, the GI % (M14) was “– (Only GI % higher than 10% are shown)” and the GI % (UO-31) was “– (Only GI % higher than 10% are shown)”. The GI % (SN12C) was “– (Only GI % higher than 10% are shown)”, the GI % (MDA-MB-435) was “– (Only GI % higher than 10% are shown)” and the GI % (UACC-257) was “– (Only GI % higher than 10% are shown)”. The GI % (SNB-19) was 22%, the GI % (NCI-H322M) was “– (Only GI % higher than 10% are shown)” and the GI % (K-562) was 18%. The GI % (SF-268) was “– (Only GI % higher than 10% are shown)”, the GI % (SK-OV-3) was “– (Only GI % higher than 10% are shown)” and the GI % (IGROV1) was “– (Only GI % higher than 10% are shown)”. For the same compound, the GI % (NCI-H522) was “– (Only GI % higher than 10% are shown)”, the GI % (BT-549) was “– (Only GI % higher than 10% are shown)” and the GI % (SR) was 19%. The GI % (HT29) was “– (Only GI % higher than 10% are shown)”, the GI % (786-0) was “– (Only GI % higher than 10% are shown)” and the GI % (A498) was “– (Only GI % higher than 10% are shown)”. The GI % (SK-MEL-2) was “– (Only GI % higher than 10% are shown)”, the GI % (OVCAR-4) was “– (Only GI % higher than 10% are shown)” and the GI % (COLO 205) was “– (Only GI % higher than 10% are shown)”. For the same compound, the GI % (RPMI-8226) was “– (Only GI % higher than 10% are shown)”, the GI % (OVCAR-5) was “– (Only GI % higher than 10% are shown)” and the GI % (SK-MEL-5) was “– (Only GI % higher than 10% are shown)”. For the same compound, the GI % (LOX IMVI) was “– (Only GI % higher than 10% are shown)”, the GI % (SNB-75) was “– (Only GI % higher than 10% are shown)” and the IC50 (MDA-MB-231) was 15.6 ± 0.98 µM. The IC50 (HCT-116) was 6.4 ± 0.5 µM, the GI % (OVCAR-3) was “– (Only GI % higher than 10% are shown)” and the GI % (MALME-3M) was “– (Only GI % higher than 10% are shown)”. For the same compound, the GI % (CCRF-CEM) was “– (Only GI % higher than 10% are shown)”, the GI % (MDA-MB-468) was 17% and the GI % (UACC-62) was “– (Only GI % higher than 10% are shown)”. For the same compound, the GI % (T-47D) was “– (Only GI % higher than 10% are shown)”.

In the case of `CC(C)n1cc(C=NN=C2C(=O)Nc3ccccc32)c2ccccc21` [Compound 9], the GI % (KM12) is reported as “– (Only GI % higher than 10% are shown)”, the GI % (HL-60(TB)) is reported as 18% and the GI % (SF-295) is reported as “– (Only GI % higher than 10% are shown)”. For the same compound, the GI % (SK-MEL-28) was “– (Only GI % higher than 10% are shown)”, the GI % (HCT-15) was “– (Only GI % higher than 10% are shown)” and the GI % (SF-539) was “– (Only GI % higher than 10% are shown)”. The GI % (MDA-MB-231/ATCC) was 11%, the GI % (PC-3) was “– (Only GI % higher than 10% are shown)” and the GI % (DU-145) was “– (Only GI % higher than 10% are shown)”. For the same compound, the GI % (SW-620) was “– (Only GI % higher than 10% are shown)”, the GI % (M14) was “– (Only GI % higher than 10% are shown)” and the GI % (UO-31) was 14%. The GI % (SN12C) was “– (Only GI % higher than 10% are shown)”, the GI % (MDA-MB-435) was “– (Only GI % higher than 10% are shown)” and the GI % (UACC-257) was “– (Only GI % higher than 10% are shown)”. For the same compound, the GI % (SNB-19) was “– (Only GI % higher than 10% are shown)”, the GI % (NCI-H322M) was “– (Only GI % higher than 10% are shown)” and the GI % (K-562) was “– (Only GI % higher than 10% are shown)”. For the same compound, the GI % (SF-268) was “– (Only GI % higher than 10% are shown)”, the GI % (SK-OV-3) was “– (Only GI % higher than 10% are shown)” and the GI % (IGROV1) was “– (Only GI % higher than 10% are shown)”. The GI % (NCI-H522) was 10%, the GI % (BT-549) was “– (Only GI % higher than 10% are shown)” and the GI % (SR) was 11%. The GI % (HT29) was “– (Only GI % higher than 10% are shown)”, the GI % (786-0) was “– (Only GI % higher than 10% are shown)” and the GI % (A498) was “– (Only GI % higher than 10% are shown)”. For the same compound, the GI % (SK-MEL-2) was “– (Only GI % higher than 10% are shown)”, the GI % (OVCAR-4) was “– (Only GI % higher than 10% are shown)” and the GI % (COLO 205) was “– (Only GI % higher than 10% are shown)”. The GI % (RPMI-8226) was “– (Only GI % higher than 10% are shown)”, the GI % (OVCAR-5) was “– (Only GI % higher than 10% are shown)” and the GI % (SK-MEL-5) was “– (Only GI % higher than 10% are shown)”. The GI % (LOX IMVI) was “– (Only GI % higher than 10% are shown)”, the GI % (SNB-75) was 33% and the IC50 (MDA-MB-231) was 10.4 ± 0.8 µM. The IC50 (HCT-116) was 28.2 ± 1.73 µM, the GI % (OVCAR-3) was “– (Only GI % higher than 10% are shown)” and the GI % (MALME-3M) was “– (Only GI % higher than 10% are shown)”. The GI % (CCRF-CEM) was “– (Only GI % higher than 10% are shown)”, the GI % (MDA-MB-468) was “– (Only GI % higher than 10% are shown)” and the GI % (UACC-62) was “– (Only GI % higher than 10% are shown)”. It also gave a GI % (T-47D) of 13%.
